Entries after “also recorded” stand apart in the source; their conditions may differ.
Assays:
[1] = test system: LPS mediated PGE-2 production; assay: PGE-2 production in LPS treated RAW macrophage cells (ELISA); assay type: cell-based, murine; conditions: 100 μM inhibitor, 100 ng/ml LPS (FIG. 4)
Procedure: Raw macrophage murine cells were plated at a cell density of 1×10^5 and pre-treated with 100 μM of each of the inhibitors […] for 30 minutes at 37° C. in a humidified 5% CO2 incubator. Raw macrophage cells were then treated with 100 ng/ml of LPS and supernatants were collected after 16 hours at 37° C. in a humidified 5% CO2 incubator and analysed for PGE-2 production. Levels of PGE-2 were measured by ELISA. (CAT # KGE004 R&D Syst).

[2] = test system: LPS induced TNF-α production; assay: Inhibition of LPS induced TNF-α production in RAW 264.7 macrophage cells (ELISA); assay type: cell-based, mouse
Procedure: RAW 264.7 macrophage cells were plated at 1×10^5/ml in 450 μl of medium in a 48 well plate. 16 hours later cells were treated with ISO-1 or Tautomerase Inhibitors at a final concentration of 10, 50 or 100 μM for 30 minutes before stimulation with 100 ng/ml LPS. Supernatants were collected after 20 hours for determination of TNF-α levels. TNF-α levels were determined using a TNF-α specific ELISA (CAT # DY410 R&D Syst).
96 well plates were coated with 50 μl of Capture Antibody ([…]) in PBS and sealed and incubated overnight at 4° C. Plates were then washed three times in 0.05% PBS Tween and plates blotted. Plates were blocked by adding 150 μl of 1% BSA in PBS (Gibco—cat no. 14190-094) to each well and incubated at room temperature for 2 hours. Plates were washed again as previously described. 50 μl of sample or standard was added to each well and incubated for overnight at 4° C. Plates were then washed again as described. 50 μl of the detection Antibody (200 ng/ml) in 1% BSA in PBS was added to each well and incubated for 2 hours at room temperature. Plates were then washed again as described. 50 μl of working concentration of Streptavidin—HRP was added to each well and plates were covered and incubated for 20 minutes at room temperature. 50 μl of substrate solution (One OPD tablet and one urea hydrogen peroxide/buffer tablet were dissolved in 20 ml of water to yield a ready to use buffered solution, Sigma—cat no. 9187-50) was added to each well and incubated for 20 minutes at room temperature. 25 μl of 2N H2SO4 was added to each well to stop the reaction. The optical density of each well was then measured with a spectrophotometer at 450 nm.
Initially the panel of 25 novel potential tautomerase inhibitors was screened in an in-vitro system. In order to do this we exploited the fact that MIF is needed for optimal LPS induced TNF-α production. We therefore reasoned that our potential TIs should be able to inhibit LPS induced TNF-α in RAW macrophage murine cells. RAW macrophage murine cells were plated at 37° C. in a humidified 5% CO2 incubator. 16 hours later the cells were pre-treated with each of the inhibitors at concentration of 100, 50 or 10 μM for 30 minutes 100 ng/ml of LPS was then added to the cells and supernatants were collected after 16 hours and analysed for TNF-α production by ELISA.

MIF tautomerase = molecular target: T1, MIF tautomerase (Homo sapiens, UniProt P14174); assay: MIF tautomerase inhibition assay; assay type: biochemical; conditions: panel of 25 potential inhibitors, 100 μM (FIG. 1, FIG. 3)
T1 construct: host or cells: E. coli BL21
T1 sequence (P14174 2-115 limits assumed): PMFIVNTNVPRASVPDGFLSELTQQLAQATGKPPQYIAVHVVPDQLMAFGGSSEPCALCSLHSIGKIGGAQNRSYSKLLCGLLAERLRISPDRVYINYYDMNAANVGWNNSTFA
Procedure: Human recombinant MIF was purified as per Bernhagen et al. (Biochemistry, 1994. 33(47): p. 14144-55). Briefly, BL21 E. coli cells expressing the pET11b-MIF construct were grown to an absorbance at 600 nm (OD) of […]. Isopropyl 1-thio-P-D-galactopyranoside (IPTG) (Sigma—cat no. 16758) was added to a final concentration of 1 mM to induce expression of the MIF gene and incubated for another 3 hours. Bacteria were then harvested by centrifugation and the cell pellets were then frozen. Protein purification was then out sourced to Scottish Biomedical, where the bacterial pellets were thawed and resuspended in 3 ml of Tris-buffered saline. The bacteria were then lysed by adding an equivalent number of glass beads and vortexing strongly for 10 minutes. Glass beads were removed by centrifugation at 1000 g for 10 minutes and the bacterial extract was centrifuged at 1000 g for a further 30 minutes. The supernatant was then sterile-filtered through a […] membrane filter and put through a MONO Q anion exchange chromatography column. MIF was eluted using Tris-buffered saline in the first flow-through fractions and pooled and placed on ice. These pooled fractions were then applied to a C8-SepPak reverse phase column. Unbound material was eluted by washing with water and 20% acetonitrile/water. MIF was then eluted using 6 column volumes of 60% acetonitrile/water. This sample was then renatured by dissolving MIF at a concentration of […] in 20 mM sodium phosphate buffer containing 8M urea and 5 mM DTT and dialysed against 20 mM sodium phosphate buffer. […]
L-dopachrome methyl ester was prepared at 2.4 mM through oxidation of L-3,4-dihydroxyphenylalanine methyl ester with sodium periodate. The solution was mixed well and placed at room temperature for 5 minutes before being placed on ice in the dark. 100 ng of rMIF was added to each of the Tautomerase Inhibitors or ISO-1 at a number of concentrations (1, 50 and 100 μM) with substrate. The decrease in absorbance was measured with a spectrophotometer at 475 nm every 10 seconds for 10 minutes.
The rate of the reaction of rMIF and substrate alone was measured over time at 475 nm. This was compared to the rate of this reaction with the addition of 100 μM of each of the inhibitors. Inhibition was calculated as the percentage in the reduction of the rate of change with the addition of the inhibitor averaged over five minutes.

[3] = test system: Lewis Lung carcinoma cells (LLC); assay: LLC-GLuc proliferation assay with rMIF; assay type: cell-based, mouse; conditions: 100 μM inhibitor, 100 ng/ml rMIF, 48 hours (FIG. 5)
Procedure: LLC-GLuc cells were plated in a 6 well plate at a density of 5×10^4 cells/ml in DMEM supplemented with P/S, 10% FCS and L-Glu. After overnight adherence, 100 ng/ml MIF was added along with the inhibitors or DMSO to a total of 1 ml serum free medium. Cells were harvested after 48 hours by trypsinisation and counted in a haemocytometer.
The ability of candidate compounds to reduce cellular proliferation was also examined. For this assay, LLC cells were plated at a cell density of 5×10^4 cells/ml. The cells were then pre-treated with TI 19 or ISO-1 at a concentration of 100 μM. The cells were then treated with 100 ng/ml of recombinant MIF. The cells were incubated at 37° C. in a humidified 5% CO2 incubator and after 48 hours the cells were harvested and counted.

Cc1ccccc1-c1cc2ccccc2c(=O)o1 [TI 19]
reduction of LPS mediated PGE-2 production, in words [1]: significantly reduces; also recorded: greater reduction in PGE-2 than ISO-1; also recorded: reduced PGE-2 levels to comparable levels in untreated cells
reduction of TNF-α production, in words ([2]; 10 μM inhibitor (FIG. 2C)): more effective than ISO-1
reduction of TNF-α production, in words ([2]; 50 μM inhibitor (FIG. 2B)): more effective than the commercial standard ISO-1
reduction of TNF-α production, in words ([2]; concentration not given): more effective at reducing TNF-α than the commercially available ISO-1; also recorded: reduction in TNF-α production
inhibition of MIF tautomerase enzymatic activity, in words (MIF tautomerase): highest percentage inhibition of MIF enzymatic activity; also recorded: significantly more potent than the commercially available small molecule MIF inhibitor ISO-1
reduction of MIF induced proliferation, in words [3]: inhibited significantly; also recorded: reduced proliferation to levels comparable with untreated cells; also recorded: reduced cell proliferation

— patent publication US10106519B2, “3-phenyl-7-hydroxy-isocoumarins as macrophage migration inhibitory factor (MIF) inhibitors” (The Provost, Fellows, Foundation Scholars, & the Other …, priority 2014, dated 2018)
